Results taken from article PMC12679645, “Diversifying the triquinazine scaffold of a Janus kinase inhibitor” (RSC Medicinal Chemistry, 2025).
Like-named read-outs stand apart in the source and are kept apart here. One block for each compound: values may come before it.

Tests used:
[1] = target: T1, JAK1 (Homo sapiens, UniProt P23458); test: biochemical enzymatic kinase assay (Eurofins Cerep), IC50 curve
[2] = target: T2, TYK2 (Homo sapiens, UniProt P29597); test: biochemical; parameters: Eurofins Cerep biochemical enzymatic kinase assay, per cent inhibition at a single concentration, duplicate
T2 sequence (P29597 whole entry): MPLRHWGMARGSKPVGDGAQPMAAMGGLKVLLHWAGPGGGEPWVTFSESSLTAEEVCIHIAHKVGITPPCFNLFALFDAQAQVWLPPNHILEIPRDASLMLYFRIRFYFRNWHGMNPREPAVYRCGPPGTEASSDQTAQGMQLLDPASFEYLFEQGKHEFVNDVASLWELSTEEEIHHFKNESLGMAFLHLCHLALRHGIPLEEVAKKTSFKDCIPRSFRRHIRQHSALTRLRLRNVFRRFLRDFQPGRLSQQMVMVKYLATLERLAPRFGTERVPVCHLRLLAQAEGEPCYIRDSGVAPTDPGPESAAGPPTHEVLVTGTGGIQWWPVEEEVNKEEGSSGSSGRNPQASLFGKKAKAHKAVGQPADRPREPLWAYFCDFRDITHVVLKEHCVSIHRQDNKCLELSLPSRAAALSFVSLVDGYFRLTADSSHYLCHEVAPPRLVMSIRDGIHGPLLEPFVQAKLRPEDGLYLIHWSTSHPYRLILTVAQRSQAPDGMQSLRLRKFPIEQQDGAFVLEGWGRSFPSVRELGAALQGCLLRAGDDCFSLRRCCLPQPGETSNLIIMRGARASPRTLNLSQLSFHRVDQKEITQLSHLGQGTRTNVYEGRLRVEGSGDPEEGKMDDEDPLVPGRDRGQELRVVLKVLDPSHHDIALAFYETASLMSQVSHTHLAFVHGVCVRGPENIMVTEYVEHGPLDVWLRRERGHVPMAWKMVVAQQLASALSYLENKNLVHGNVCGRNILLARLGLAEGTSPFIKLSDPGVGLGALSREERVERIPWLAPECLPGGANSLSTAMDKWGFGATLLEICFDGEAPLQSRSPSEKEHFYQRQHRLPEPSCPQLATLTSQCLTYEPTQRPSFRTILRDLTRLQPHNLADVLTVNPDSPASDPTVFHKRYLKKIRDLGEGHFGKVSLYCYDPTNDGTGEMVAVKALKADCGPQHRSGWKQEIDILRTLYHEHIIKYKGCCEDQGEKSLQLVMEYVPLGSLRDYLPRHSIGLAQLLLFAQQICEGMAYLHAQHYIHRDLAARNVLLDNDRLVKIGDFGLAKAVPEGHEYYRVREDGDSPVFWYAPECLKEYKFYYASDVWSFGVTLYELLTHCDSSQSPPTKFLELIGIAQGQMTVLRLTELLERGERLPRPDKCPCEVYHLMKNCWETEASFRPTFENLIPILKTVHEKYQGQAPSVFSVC
Source text: (§1) Spiro diamines containing a deazapurine ring are known JAK inhibitors.[35]

[3] = target: T3, JAK2 (Homo sapiens, UniProt O60674); test: biochemical; parameters: Eurofins Cerep biochemical enzymatic kinase assay, per cent inhibition at a single concentration, duplicate
T3 sequence (O60674 whole entry): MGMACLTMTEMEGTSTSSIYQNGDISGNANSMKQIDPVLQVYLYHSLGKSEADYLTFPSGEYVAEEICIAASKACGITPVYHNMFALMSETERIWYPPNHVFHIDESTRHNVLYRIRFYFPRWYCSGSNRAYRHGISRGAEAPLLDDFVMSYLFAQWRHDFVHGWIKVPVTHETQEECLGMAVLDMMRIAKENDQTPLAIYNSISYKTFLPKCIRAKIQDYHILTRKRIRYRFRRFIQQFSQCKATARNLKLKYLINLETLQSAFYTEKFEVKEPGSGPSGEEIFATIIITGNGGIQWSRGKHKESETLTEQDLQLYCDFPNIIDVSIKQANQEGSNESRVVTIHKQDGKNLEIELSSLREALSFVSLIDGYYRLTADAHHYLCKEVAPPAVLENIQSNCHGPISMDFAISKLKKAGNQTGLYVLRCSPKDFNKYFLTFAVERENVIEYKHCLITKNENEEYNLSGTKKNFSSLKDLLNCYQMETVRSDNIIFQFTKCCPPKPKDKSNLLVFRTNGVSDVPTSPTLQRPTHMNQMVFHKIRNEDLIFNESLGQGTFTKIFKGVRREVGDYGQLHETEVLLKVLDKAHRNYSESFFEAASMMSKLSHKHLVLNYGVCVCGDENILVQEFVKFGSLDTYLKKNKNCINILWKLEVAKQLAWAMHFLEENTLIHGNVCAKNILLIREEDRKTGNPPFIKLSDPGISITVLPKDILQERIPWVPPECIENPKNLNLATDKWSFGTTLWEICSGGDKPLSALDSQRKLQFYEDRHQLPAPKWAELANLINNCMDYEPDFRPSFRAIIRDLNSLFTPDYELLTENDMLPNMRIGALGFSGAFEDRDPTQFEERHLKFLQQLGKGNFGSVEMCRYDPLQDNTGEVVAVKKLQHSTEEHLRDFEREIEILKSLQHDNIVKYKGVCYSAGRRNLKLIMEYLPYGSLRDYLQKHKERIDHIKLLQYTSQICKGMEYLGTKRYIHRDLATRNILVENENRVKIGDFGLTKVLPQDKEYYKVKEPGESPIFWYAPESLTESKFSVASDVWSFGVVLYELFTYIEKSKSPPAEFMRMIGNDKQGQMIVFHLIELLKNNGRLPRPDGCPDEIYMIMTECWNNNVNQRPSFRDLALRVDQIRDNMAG
Source text: as §1

[4] = target: T1, JAK1; test: biochemical enzymatic kinase assay, % inhibition at […]
[5] = target: T4, JAK3 (Homo sapiens, UniProt P52333); test: biochemical; parameters: Eurofins Cerep biochemical enzymatic kinase assay, per cent inhibition at a single concentration, duplicate; conditions: read-out: % of inhibition ^a / JAK3
T4 sequence (P52333 1-1124): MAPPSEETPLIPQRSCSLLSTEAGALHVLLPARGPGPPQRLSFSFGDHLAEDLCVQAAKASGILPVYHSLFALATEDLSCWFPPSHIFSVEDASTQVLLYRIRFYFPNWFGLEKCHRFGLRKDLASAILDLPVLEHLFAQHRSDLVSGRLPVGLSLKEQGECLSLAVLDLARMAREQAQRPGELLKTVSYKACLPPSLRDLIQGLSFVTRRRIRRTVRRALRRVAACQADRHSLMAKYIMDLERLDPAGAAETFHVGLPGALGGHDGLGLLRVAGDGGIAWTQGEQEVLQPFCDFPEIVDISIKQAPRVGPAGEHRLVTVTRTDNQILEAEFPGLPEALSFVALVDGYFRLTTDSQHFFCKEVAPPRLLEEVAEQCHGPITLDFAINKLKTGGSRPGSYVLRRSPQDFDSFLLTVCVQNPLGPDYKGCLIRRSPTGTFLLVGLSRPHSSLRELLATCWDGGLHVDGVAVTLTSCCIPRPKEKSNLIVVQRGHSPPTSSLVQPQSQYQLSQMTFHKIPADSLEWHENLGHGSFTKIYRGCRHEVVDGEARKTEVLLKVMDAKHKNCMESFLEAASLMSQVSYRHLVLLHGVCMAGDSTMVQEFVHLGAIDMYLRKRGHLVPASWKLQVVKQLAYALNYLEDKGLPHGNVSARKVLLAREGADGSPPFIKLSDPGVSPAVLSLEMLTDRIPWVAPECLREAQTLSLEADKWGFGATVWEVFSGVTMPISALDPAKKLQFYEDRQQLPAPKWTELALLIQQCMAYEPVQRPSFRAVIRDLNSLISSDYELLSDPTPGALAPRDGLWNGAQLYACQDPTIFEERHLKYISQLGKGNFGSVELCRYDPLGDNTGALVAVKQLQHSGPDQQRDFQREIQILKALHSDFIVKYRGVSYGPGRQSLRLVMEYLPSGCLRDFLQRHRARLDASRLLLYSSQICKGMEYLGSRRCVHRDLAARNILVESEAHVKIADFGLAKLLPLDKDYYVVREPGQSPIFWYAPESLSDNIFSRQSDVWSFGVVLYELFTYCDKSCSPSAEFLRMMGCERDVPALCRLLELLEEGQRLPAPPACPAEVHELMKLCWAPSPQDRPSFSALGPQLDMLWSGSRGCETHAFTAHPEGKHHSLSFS

[6] = target: T1, JAK1; test: biochemical; parameters: Eurofins Cerep biochemical enzymatic kinase assay, per cent inhibition at a single concentration, duplicate
Method: Given the structural similarities between the expanded ring analogues 16a and 16b and the previously described inhibitor KMC420, we initially evaluated their activity at 0.1 μM against JAK1, JAK2, JAK3, and TYK2, using biochemical enzymatic assays provided by Eurofins Cerep SA. […] Spiro diamines containing a deazapurine ring are known JAK inhibitors.[35] […] However, this compound was not tested against the other JAK enzymes. Due to its similarity to our potent compound 40a, we decided to investigate its inhibitory activity against the four enzymes at a concentration of 0.1 μM. […] To investigate the binding differences between 40a and (R)-KMC420, we performed docking studies with DOCK6 using the JAK1 co-crystal structure with tofacitinib (PDB 3EYG) as receptor.

[7] = target: T4, JAK3; test: biochemical; parameters: radiometric filter-binding kinase inhibition assay (Eurofins Cerep), scintillation counting
Method: (§2) Given the structural similarities between the expanded ring analogues 16a and 16b and the previously described inhibitor KMC420, we initially evaluated their activity at 0.1 μM against JAK1, JAK2, JAK3, and TYK2, using biochemical enzymatic assays provided by Eurofins Cerep SA.

[8] = target: T2, TYK2; test: biochemical; parameters: radiometric filter-binding kinase inhibition assay (Eurofins Cerep), scintillation counting
Method: as §2

[9] = target: T1, JAK1; test: biochemical; parameters: radiometric filter-binding kinase inhibition assay (Eurofins Cerep), scintillation counting
Method: as §2

[10] = target: T3, JAK2; test: biochemical; parameters: radiometric filter-binding kinase inhibition assay (Eurofins Cerep), scintillation counting
Method: as §2

[11] = target: T1, JAK1; test: biochemical enzymatic kinase assay, % inhibition at […]; remark: listed apart in the source
[12] = target: T4, JAK3; test: as above
[13] = target: T2, TYK2; test: as above

T1 sequence (P23458 whole entry): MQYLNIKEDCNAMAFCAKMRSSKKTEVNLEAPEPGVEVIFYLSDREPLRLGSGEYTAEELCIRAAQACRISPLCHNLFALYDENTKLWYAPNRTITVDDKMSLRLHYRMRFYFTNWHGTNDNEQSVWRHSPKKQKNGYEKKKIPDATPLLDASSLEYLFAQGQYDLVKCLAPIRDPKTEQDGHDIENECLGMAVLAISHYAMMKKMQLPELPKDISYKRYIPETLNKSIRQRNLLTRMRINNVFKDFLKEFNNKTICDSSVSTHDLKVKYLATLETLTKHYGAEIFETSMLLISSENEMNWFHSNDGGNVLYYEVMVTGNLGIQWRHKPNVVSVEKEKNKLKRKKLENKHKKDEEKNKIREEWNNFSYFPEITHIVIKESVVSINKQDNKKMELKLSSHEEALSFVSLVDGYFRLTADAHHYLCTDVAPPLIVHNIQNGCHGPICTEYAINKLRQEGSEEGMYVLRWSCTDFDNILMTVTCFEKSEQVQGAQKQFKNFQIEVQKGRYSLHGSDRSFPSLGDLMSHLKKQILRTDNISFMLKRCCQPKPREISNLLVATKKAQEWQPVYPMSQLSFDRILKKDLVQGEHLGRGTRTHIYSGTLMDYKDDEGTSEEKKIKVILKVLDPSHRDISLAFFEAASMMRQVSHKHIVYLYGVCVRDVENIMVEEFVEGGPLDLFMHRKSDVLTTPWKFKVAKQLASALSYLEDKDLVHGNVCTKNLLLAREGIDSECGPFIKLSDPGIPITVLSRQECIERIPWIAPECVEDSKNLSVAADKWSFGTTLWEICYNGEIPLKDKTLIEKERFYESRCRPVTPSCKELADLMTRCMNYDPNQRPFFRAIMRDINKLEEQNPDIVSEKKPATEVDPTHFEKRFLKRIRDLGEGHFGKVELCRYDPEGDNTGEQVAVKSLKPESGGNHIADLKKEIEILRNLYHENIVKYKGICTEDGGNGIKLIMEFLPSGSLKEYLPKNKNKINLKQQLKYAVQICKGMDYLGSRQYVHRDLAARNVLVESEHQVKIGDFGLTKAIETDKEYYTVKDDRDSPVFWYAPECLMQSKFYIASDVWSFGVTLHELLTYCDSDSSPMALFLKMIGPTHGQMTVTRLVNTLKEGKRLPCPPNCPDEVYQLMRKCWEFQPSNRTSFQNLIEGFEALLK

Compound: CCS(=O)(=O)N[C@@H]1CC[C@@H]2N(c3ncnc4[nH]ccc34)CC[C@@]21C (racemic) [34d]
inhibition at 1 µM [2]: 56 ± 1%
inhibition at 1 µM [3]: 61 ± 1%
inhibition at 1 µM [4]: 88 ± 1%
inhibition at 1 µM [5]: 45 ± 6%

Compound: C=CC(=O)N1CCC2(C)C(Nc3ncnc4[nH]ccc34)CCC12 (stereo not shown) [36b]
inhibition at 10 µM [6]: 84 ± 2%
inhibition at 10 µM [2]: 52%
inhibition at 10 µM [3]: 47 ± 2%
inhibition at 10 µM [5]: 63 ± 1%

Compound: C[C@]12CCN(c3ncnc4[nH]ccc34)[C@H]1CC[C@H]2NC#N (racemic) [34c]
inhibition at 1 µM [2]: 53 ± 5%
inhibition at 1 µM [3]: 45 ± 8%
inhibition at 1 µM [4]: 89 ± 2%
inhibition at 1 µM [5]: 43 ± 3%

Compound: CC12CCN(c3ncnc4[nH]ccc34)C1CCC2NC(=O)CC#N (stereo not shown) [34a]
inhibition at 1 µM [6]: 85 ± 1%
inhibition at 1 µM [2]: 41 ± 6%
inhibition at 1 µM [3]: 41 ± 5%
inhibition at 1 µM [5]: 43 ± 5%

Compound: CC12CCN(C(=O)CC#N)C1CCC2Nc1ncnc2[nH]ccc12 (stereo not shown) [36a]
inhibition at 10 µM [6]: 94%
inhibition at 10 µM [2]: 75 ± 2%
inhibition at 10 µM [3]: 60%

Compound: CC12CCN(C#N)C1CCC2Nc1ncnc2[nH]ccc12 (stereo not shown) [36c]
inhibition at 10 µM [6]: 92%
inhibition at 10 µM [2]: 74 ± 3%
inhibition at 10 µM [3]: 80 ± 3%

Compound: C=CC(=O)NC1CCC2N(c3ncnc4[nH]ccc34)CCC12C (stereo not shown) [34b]
inhibition at 1 µM [6]: 73 ± 1%
inhibition at 1 µM [2]: 23 ± 5%
inhibition at 1 µM [3]: 27 ± 3%
inhibition at 1 µM [5]: 38 ± 1%

Further lines, results first:

IC50 [1]: 69 nM
Compound: C[C@]12CCN(c3ncnc4[nH]ccc34)[C@H]1CC[C@@H]2NC(=O)CC#N [(R,S,S)-40a]

inhibition at 10 µM [6]: 86 ± 1%
inhibition at 1 µM [7]: 44%
inhibition at 10 µM [7]: 96%
inhibition at 1 µM [8]: 53%
inhibition at 10 µM [8]: 97%
inhibition at 1 µM [9]: 45%
inhibition at 10 µM [9]: 99%
inhibition at 1 µM [10]: 11%
inhibition at 10 µM [10]: 98%
inhibition at 10 µM [2]: 67 ± 1%
inhibition at 10 µM [3]: 51 ± 3%
inhibition at 10 µM [5]: 42 ± 3%
Compound: CCS(=O)(=O)N1CCC2(C)C(Nc3ncnc4[nH]ccc34)CCC12 (stereo not shown) [36d]

inhibition at 1 µM [6]: 87 ± 1%
inhibition at 1 µM [2]: 34 ± 8%
inhibition at 1 µM [3]: 54 ± 6%
inhibition at 1 µM [5]: 22 ± 1%
Compound: CCS(=O)(=O)N1CCC2(CCN(c3ncnc4[nH]ccc34)C2)C1 (stereo not shown) [43d]

inhibition at 0.1 µM [6]: 80 ± 3%
inhibition at 1 µM [7]: 79%
inhibition at 10 µM [7]: 89%
inhibition at 1 µM [8]: 82%
inhibition at 10 µM [8]: 95%
inhibition at 1 µM [9]: 99%
inhibition at 10 µM [9]: 99%
inhibition at 1 µM [10]: 72%
inhibition at 10 µM [10]: 91%
inhibition at 0.1 µM [2]: 29 ± 3%
inhibition at 0.1 µM [3]: 3 ± 1%
inhibition at 0.1 µM [5]: 27 ± 1%
Compound: CC12CCN(c3ncnc4[nH]ccc34)C1CCC2NC(=O)CC#N (stereo not shown) [40a]

inhibition at 1 µM [7]: 55%
inhibition at 10 µM [7]: 99%
inhibition at 1 µM [8]: 70%
inhibition at 10 µM [8]: 100%
inhibition at 1 µM [9]: 93%
inhibition at 10 µM [9]: 100%
inhibition at 1 µM [10]: 52%
inhibition at 10 µM [10]: 96%
inhibition at 0.1 µM [2]: 16 ± 2%
inhibition at 0.1 µM [3]: 8 ± 1%
inhibition at 0.1 µM [11]: 59 ± 2%
inhibition at 0.1 µM [5]: 4 ± 1%
Compound: C=CC(=O)N[C@H]1CC[C@@H]2N(c3ncnc4[nH]ccc34)CC[C@]12C (racemic) [40b]

inhibition at 0.1 µM [6]: 28 ± 6%
inhibition at 1 µM [7]: 11%
inhibition at 1 µM [9]: 76%
inhibition at 1 µM [10]: 38%
inhibition at 0.1 µM [2]: 11 ± 12%
inhibition at 0.1 µM [3]: 1 ± 8%
inhibition at 0.1 µM [5]: -10 ± 11%
Compound: CCS(=O)(=O)NC1CCC2N(c3ncnc4[nH]ccc34)CCC12C (stereo not shown) [40d]

IC50 [1]: 18 nM
Compound: C[C@@]12CCN(c3ncnc4[nH]ccc34)[C@@H]1CC[C@H]2NC(=O)CC#N [(S,R,R)-40a]

inhibition at 1 µM [2]: 63 ± 2%
inhibition at 1 µM [3]: 59 ± 4%
inhibition at 1 µM [4]: 93 ± 1%
inhibition at 1 µM [5]: 26 ± 1%
Compound: N#CN1CCC2(CCN(c3ncnc4[nH]ccc34)C2)C1 (racemic) [43c]

inhibition at 0.1 µM [12]: 58 ± 1%
inhibition at 1 µM [7]: 96%
inhibition at 10 µM [7]: 79%
inhibition at 1 µM [8]: 92%
inhibition at 10 µM [8]: 91%
inhibition at 1 µM [9]: 95%
inhibition at 10 µM [9]: 100%
inhibition at 1 µM [10]: 58%
inhibition at 10 µM [10]: 85%
inhibition at 0.1 µM [13]: 61%
inhibition at 0.1 µM [3]: 18 ± 6%
inhibition at 0.1 µM [11]: 70 ± 2%
Compound: C[C@]12CCN(c3ncnc4[nH]ccc34)[C@H]1CC[C@@H]2NC#N (racemic) [40c]
